51 molecules from paper PMC7529893, “Structural basis for substrate recognition and chemical inhibition of oncogenic MAGE ubiquitin ligases” (Nature Communications, 2020) can be followed below.

The IC50 is the point on the concentration scale where inhibition reaches its midpoint.

The structures appear in SMILES notation.

The first assay concerns the target T1, MAGE-A11:PCF11 interaction (GST-MAGE-A11 MHD and FAM-PCF11_4) (Homo sapiens, UniProt P43364).
T1 construct: GST-MAGE-A11 MHD (human MAGE-A11 MHD amino acid 218-429); made in house; host or cells: E. coli BL21(DE3)
T1 sequence (P43364 218-429): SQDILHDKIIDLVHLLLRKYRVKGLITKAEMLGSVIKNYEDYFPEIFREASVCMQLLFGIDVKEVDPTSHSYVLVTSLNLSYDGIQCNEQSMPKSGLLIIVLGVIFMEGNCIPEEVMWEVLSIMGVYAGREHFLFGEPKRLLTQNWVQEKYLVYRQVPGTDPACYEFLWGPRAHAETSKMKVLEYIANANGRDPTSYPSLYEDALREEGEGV
Nature of the assay: TR-FRET dose response test of compounds for disruption of MAGE-A11:PCF11 binding. To be noted: Dose response TR-FRET screening of nine scaffold groups against MAGE-A11:PCF11; read-out: consensus IC50. Summed up: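 Competition of compounds against binding of FAM-PCF11_4 peptide to GST-MAGE-A11 MHD, detected with Tb-anti-GST, in 50 mM Tris pH 7.5, 20 mM MgCl2, 0.1 mg/ml BSA, 1 mM DTT. 90 min at ~25 °C; 520/490 nm emission ratio (340 nm excitation) fitted for IC50.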
For the molecule `Clc1ccc2c(NCCCNCc3ccc4[nH]ccc4c3)ccnc2c1` [SJ000520909-2], the half-maximal inhibitory concentration (IC50) stood at 67.1 µM.

Take `Cc1cc(C)c(CNCCCNc2ccnc3cc(Cl)ccc23)c(C)c1` [SJ000520911-2]: the IC50 came out at 68.1 µM.

Consider `FC(F)(F)c1ccc2c(NCCCNCc3ccc4[nH]ccc4c3)ccnc2c1` [SJ000521054-1], for which the IC50 is 0.397 µM.

For the molecule `COc1ccc(C(F)(F)F)cc1CNCCCNc1ccnc2cc(C(F)(F)F)ccc12` [SJ000521064-1], the IC50 was found to be 69.1 µM.

As to `CCc1ccc(CNCCCNc2ccnc3cc(C(F)(F)F)ccc23)cc1` [SJ000521067-1], the IC50 came to 40.9 µM.

Take `Clc1ccc2c(NCCCNCc3ccc(-c4ccccc4)cc3)ccnc2c1` [SJ000523064-1]: the 50% inhibitory concentration (IC50) was determined as 34.9 µM.

With `CCOc1ccc(N(C(C)=O)C2=C(N)C(=O)c3ccccc3C2=O)cc1` [SJ000558312-2], the 50% inhibitory concentration (IC50) came out at 65.7 µM.

As for `NC1=C(Nc2ccccc2)C(=O)c2ccccc2C1=O` [SJ000562543-1], the IC50 stood at 60.8 µM.

Turning to `Cc1ccccc1NC1=C(N)C(=O)c2ccccc2C1=O` [SJ000562551-1], the IC50 was above 70 µM.

With `Cc1ccc(NC2=C(N)C(=O)c3ccccc3C2=O)cc1` [SJ000562618-1], the IC50 worked out at 60.6 µM.

`CCCCCCCCOc1ccc(NC2=C(N)C(=O)c3ccccc3C2=O)cc1` [SJ000562629-1]: the IC50 stood at 54.8 µM.

In the case of `NC1=C(Nc2ccc(Cl)cc2)C(=O)c2ccccc2C1=O` [SJ000562630-1], the IC50 is 53.8 µM.

Regarding `Cc1cc(C)cc(NC2=C(N)C(=O)c3ccccc3C2=O)c1` [SJ000562641-1], the IC50 was found to be 55 µM.

As to `COc1cc(NCc2ccc3nc(N)nc(N)c3c2C)cc(OC)c1OC` [SJ000574313-7], the IC50 was 9.46 µM.

For `O=C1c2ccccc2NC(c2ccc(F)cc2F)N1CCCN1CCOCC1` (stereo not drawn) [SJ000795275-1], the IC50 amounted to 67.8 µM.

For `O=C1c2ccccc2NC(c2ccc(F)c(F)c2)N1CCCN1CCOCC1` (stereo not drawn) [SJ000803757-1], the 50% inhibitory concentration (IC50) is 58.4 µM.

Turning to `CCCOc1ccc(C2Nc3ccccc3C(=O)N2CCCN2CCOCC2)cc1` (stereo not drawn) [SJ000803758-1], the IC50 was above 70 µM.

Consider `CCOc1ccc(C2Nc3ccccc3C(=O)N2CCCN2CCOCC2)cc1` (stereo not drawn) [SJ000803759-1], for which the IC50 was 67.7 µM.

As to `COc1ccc(C2Nc3ccccc3C(=O)N2CCCN2CCOCC2)cc1OC(F)F` (stereo not drawn) [SJ000803760-1], the 50% inhibitory concentration (IC50) was above 70 µM.

Regarding `Cc1cc(C)c(C2Nc3ccccc3C(=O)N2CCCN2CCOCC2)cc1C` (stereo not drawn) [SJ000803761-1], the concentration for half-maximal inhibition (IC50) was 62.3 µM.

Take `CSc1ccc(C2Nc3ccccc3C(=O)N2CCCN2CCOCC2)cc1` (stereo not drawn) [SJ000803762-1]: the half-inhibitory concentration (IC50) is above 70 µM.

As for `COc1ccc2cc(C3Nc4ccccc4C(=O)N3CCCN3CCOCC3)ccc2c1` (stereo not drawn) [SJ000803763-1], the IC50 was determined as 67.4 µM.

Turning to `O=C1c2ccccc2NC(c2ccc(F)c(Br)c2)N1CCCN1CCOCC1` (stereo not drawn) [SJ000803764-1], the IC50 stood at 68 µM.

In the case of `CN(C)c1ccc(C2Nc3ccccc3C(=O)N2CCCN2CCOCC2)cc1` (stereo not drawn) [SJ000803767-1], the IC50 was above 70 µM.

For `Cc1ccc(C2Nc3ccccc3C(=O)N2CCCN2CCOCC2)cc1` (stereo not drawn) [SJ000803768-1], the IC50 stood at 65.9 µM.

`CCCn1c(=O)c2[nH]c(-c3ccccc3)nc2n(CCC)c1=O` [SJ000832251-1]: the 50% inhibitory concentration (IC50) is above 70 µM.

As to `C=CCn1c(=O)c2c(nc(-c3ccccc3)n2C)n(C)c1=O` [SJ000832270-1], the half-maximal inhibitory concentration (IC50) was above 70 µM.

The same assay, now with this note: Supplementary Data 3, 59 quinoline compounds; read-out: TR-FRET IC50.
On to `FC(F)(F)Oc1cccc(CN(CCCCNc2ccnc3cc(Cl)ccc23)Cc2ccccc2)c1` [SJ000520457-1, FC(F)(F)Oc1cccc(CN(CCCCNc2ccnc3cc(Cl)ccc23)Cc4ccccc4)c1], for which the IC50 was above 70 µM.

Take `FC(F)(F)Oc1ccccc1CN(CCCCNc1ccnc2cc(Cl)ccc12)Cc1ccccc1` [SJ000520459-1, FC(F)(F)Oc1ccccc1CN(CCCCNc2ccnc3cc(Cl)ccc23)Cc4ccccc4]: the half-maximal inhibitory concentration (IC50) was above 70 µM.

For the molecule `CCCN(CCCNc1ccnc2cc(C(F)(F)F)ccc12)CCC(C)(C)C` [SJ000520476-1, CCCN(CCCNc1ccnc2cc(ccc12)C(F)(F)F)CCC(C)(C)C], the IC50 was above 70 µM.

Turning to `CCCN(CCCNc1ccnc2cc(C(F)(F)F)ccc12)Cc1ccc(CC)cc1` [SJ000521009-2, CCCN(CCCNc1ccnc2cc(ccc12)C(F)(F)F)Cc3ccc(CC)cc3], the IC50 was above 70 µM.

In the case of `COC(=O)CCCCCNCCCNc1ccnc2cc(Cl)ccc12` [SJ000521021-1], the half-maximal inhibitory concentration (IC50) came out at 31.4 µM.

`Clc1ccc2c(NCCCNCc3cc4ccccc4s3)ccnc2c1` [SJ000521032-1, Clc1ccc2c(NCCCNCc3cc4ccccc4s3)ccnc2c1]: the concentration for half-maximal inhibition (IC50) is above 70 µM.

For `Clc1ccc2c(NCCCNCc3csc4ccccc34)ccnc2c1` [SJ000521033-1, Clc1ccc2c(NCCCNCc3csc4ccccc34)ccnc2c1], the half-maximal inhibitory concentration (IC50) is above 70 µM.

Take `FC(F)(F)c1ccc2c(NCCCNCc3cc(Br)cs3)ccnc2c1` [SJ000521056-1, FC(F)(F)c1ccc2c(NCCCNCc3cc(Br)cs3)ccnc2c1]: the IC50 is above 70 µM.

As for `FC(F)(F)c1ccc2c(NCCCNCc3cc4ccccc4s3)ccnc2c1` [SJ000521060-1, FC(F)(F)c1ccc2c(NCCCNCc3cc4ccccc4s3)ccnc2c1], the IC50 was above 70 µM.

As to `FC(F)(F)c1ccc2c(NCCCNCc3csc4ccccc34)ccnc2c1` [SJ000521061-1, FC(F)(F)c1ccc2c(NCCCNCc3csc4ccccc34)ccnc2c1], the IC50 was above 70 µM.

Consider `Fc1ccc(CN(CCCCNc2ccnc3cc(Cl)ccc23)Cc2ccccc2)cc1` [SJ000522725-1, Fc1ccc(CN(CCCCNc2ccnc3cc(Cl)ccc23)Cc4ccccc4)cc1], for which the IC50 is above 70 µM.

Consider `CCCN(CCCNc1c2ccc(Cl)cc2nc2ccc(OC)cc12)Cc1ccc2[nH]ccc2c1` [SJ000522732-2, CCCN(CCCNc1c2ccc(Cl)cc2nc3ccc(OC)cc13)Cc4ccc5[nH]ccc5c4], for which the IC50 is above 70 µM.

In the case of `CCCN(CCCNc1ccnc2cc(Cl)ccc12)Cc1ccc2[nH]ccc2c1` [SJ000522746-2, CCCN(CCCNc1ccnc2cc(Cl)ccc12)Cc3ccc4[nH]ccc4c3], the half-inhibitory concentration (IC50) worked out at 2.8 µM.

For `CCCN(CCCNc1ccnc2cc(Cl)ccc12)Cc1c(C)cc(C)cc1C` [SJ000522749-1, CCCN(CCCNc1ccnc2cc(Cl)ccc12)Cc3c(C)cc(C)cc3C], the half-maximal inhibitory concentration (IC50) is above 70 µM.

Regarding `CCCN(CCCNc1ccnc2cc(Cl)ccc12)Cc1ccc(CC)cc1` [SJ000523001-1, CCCN(CCCNc1ccnc2cc(Cl)ccc12)Cc3ccc(CC)cc3], the IC50 is above 70 µM.

Turning to `CCCN(CCCNc1ccnc2cc(Cl)ccc12)Cc1cc(C(F)(F)F)ccc1OC` [SJ000523012-1, CCCN(CCCNc1ccnc2cc(Cl)ccc12)Cc3cc(ccc3OC)C(F)(F)F], the IC50 is above 70 µM.

Regarding `CCCN(CCCNc1c2ccc(Cl)cc2nc2ccc(OC)cc12)Cc1c(Cl)ccc(Cl)c1Cl` [SJ000523021-1, CCCN(CCCNc1c2ccc(Cl)cc2nc3ccc(OC)cc13)Cc4c(Cl)ccc(Cl)c4Cl], the half-inhibitory concentration (IC50) was above 70 µM.

For `CCCN(CCCNc1ccnc2cc(Cl)ccc12)Cc1ccc(-c2ccccc2)cc1` [SJ000523039-1, CCCN(CCCNc1ccnc2cc(Cl)ccc12)Cc3ccc(cc3)c4ccccc4], the IC50 was above 70 µM.

Take `CCCN(CCCNc1ccnc2cc(Cl)ccc12)Cc1ccc2ccccc2c1` [SJ000523040-1, CCCN(CCCNc1ccnc2cc(Cl)ccc12)Cc3ccc4ccccc4c3]: the half-maximal inhibitory concentration (IC50) is above 70 µM.

Regarding `Clc1cccc(-c2ccc(CNCCCNc3ccnc4cc(Cl)ccc34)o2)c1` [SJ000523069-1, Clc1cccc(c1)c2oc(CNCCCNc3ccnc4cc(Cl)ccc34)cc2], the IC50 was above 70 µM.

`CCCN(CCCNc1ccnc2cc(C(F)(F)F)ccc12)Cc1ccccc1OC` [SJ000523072-1, CCCN(CCCNc1ccnc2cc(ccc12)C(F)(F)F)Cc3ccccc3OC]: the IC50 was above 70 µM.

For `CCCCCCN(CCC)CCCNc1ccnc2cc(C(F)(F)F)ccc12` [SJ000523083-1, CCCCCCN(CCC)CCCNc1ccnc2cc(ccc12)C(F)(F)F], the IC50 was above 70 µM.

In the case of `CCCN(CCCNc1ccnc2cc(C(F)(F)F)ccc12)Cc1ccc2[nH]ccc2c1` [SJ000575171-1, CCCN(CCCNc1ccnc2cc(ccc12)C(F)(F)F)Cc3ccc4[nH]ccc4c3], the half-inhibitory concentration (IC50) was 33.2 µM.

For the molecule `Clc1ccc2c(NCCCNCc3ccc[nH]3)ccnc2c1` [SJ000575192-1, Clc1ccc2c(NCCCNCc3ccc[nH]3)ccnc2c1], the IC50 amounted to 22.8 µM.
